Results on three compounds are retold here after ChEMBL document CHEMBL3600308, “Antiproliferative Trihydroxyalkylcyclohexenones from Pleiogynium timoriense” (J Nat Prod, 2015).

This experiment concerns A2780. Nature of the experiment: Antiproliferative activity against drug-sensitive human A2780 cells assessed as inhibition of cell growth after 2 days by Alamar Blue assay. Format: functional, cell-based. To be noted: A2780, 48 h. In general terms: The colour change of resazurin is a common sign of viable cells or microbes.
Take `CCCCCCCC/C=C\CCCCCCCCC[C@]1(O)C(=O)C=C[C@H](O)[C@H]1O`: the IC50 amounted to 700 nM.

Take `CCCCCCCC/C=C\CCCCCCC[C@]1(O)C(=O)C=C[C@H](O)[C@H]1O`: the IC50 worked out at 800 nM.

Turning to `CCCCCCCC/C=C\CCCCCCCCCCC[C@]1(O)C(=O)C=C[C@H](O)[C@H]1O`, the IC50 was found to be 800 nM.

The term IC50 denotes the point on the concentration scale where inhibition reaches its midpoint.
